Measurements taken from patent publication US4778801A, “Isoindolinone derivatives, production and use thereof” (Takeda Chemical Industries, Ltd., priority 1984, dated 1988).

Legend:
benzodiazepine receptors = assay: specific binding to benzodiazepine receptors, [3H]-diazepam displacement; conditions: [3H]diazepam 2 nM, pH 7.4, 4° C., 20 minutes
Experimental: The compounds (I) according to the invention were tested for their affinity for benzodiazepine receptors using radioactive [^3 H]-diazepam.
The assay for specific binding to benzodiazepine receptors was performed according to the method described in the literature (Nature, 266, 732 (1977); European J. Pharmacol., 48, 263 (1978)). Thus, a crude mitochondrial fraction obtained from the cerebral cortex of SD strain male rats aged 9 to 10 weeks was suspended in 50 mM Tris-HCl buffer (pH 7.4), followed by addition of the test drug at several concentration levels and of [^3 H]diazepam (final concentration 2 nM). Each suspension was incubated at 4° C. for 20 minutes and then filtered through a Whatman GF/B glassfiber filter, and the radioactivity of [^3 H]diazepam on the filter was measured with a liquid scintillation counter. In this manner, the IC50 value, namely the concentration of the test drug at which the [^3 H]diazepam binding was inhibited by 50%, was determined.

rats = assay: muscle relaxant activity, rotating rod; type: in vivo; conditions: Rattus norvegicus, 1 min, 50% of rats fall off within 1 minute
Experimental: Groups of 6 rats were used. The rats were placed on a rotating rod with a diameter of 3.5 cm. The rod rotated with a speed of 8 revolutions per minute. […] The dose, ED50, of the test compound as required to make 50% of the rats fall off the rod was calculated [J. Am. Pharmaceutical Association, 46, 208 (1957)].

mice = assay: sleep-inducing activity, potentiation of pentobarbital sleep; type: in vivo; conditions: Mus musculus, oral, 30 minutes before pentobarbital 25 mg/kg i.p.
Experimental: Mice, in groups of eight, were orally administered the test compound and, 30 minutes later, intraperitoneally administered 25 mg/kg of pentobarbital. The loss of righting reflex which lasted for 2 minutes or longer during the 30-minute period following pentobarbital administration was taken as an indication of sleep potentiation. The dose, ED50, of the test compound as required to achieve sleep potentiation in 50% of mice was calculated.

male rat (SD/JCL) = assay: antianxiety activity, anticonflict test (Vogel et al.); type: in vivo; conditions: po; orally administered, male rat, 30, 60 or 180 minutes after administration; read-out: Antianxiety activity MED
Experimental: The antianxiety activity measurement was performed in accordance with Vogel et al. [Psychopharmacologia, 21, 1 (1970)] as follows: An apparatus comprising a large clear box with a stainless steel grid floor and a smaller opaque dark box provided with a drinking tube was arranged such that a rat placed therein could receive, on the sole, electric shocks through the grid floor following each twentieth lick. The test compound was orally administered to each male rat (SD/JCL) deprived of water for 48 hours prior to the test, which rat was then, 30, 60 or 180 minutes after administration, placed in the apparatus mentioned above and the number of licks was recorded over 3 minutes. The increase in the number of licks as compared with a physiological saline group was determined and taken as a measure of antianxiety potency, and the minimum effective dose determined accordingly.

Structure (SMILES)	IC50 (benzodiazepine receptors) [nM]	also measured
O=C(CC1c2ccccc2C(=O)N1c1ccc2ccc(Cl)nc2n1)N1CCC(=NO)CC1 (centres unmarked)	0.645	
COC1(OC)CCN(C(=O)CC2c3ccccc3C(=O)N2c2ccc3ccc(Cl)nc3n2)CC1 (centres unmarked) [drawing 19]	1.29	
COC1(OC)CCN(C(=O)CC2c3ccccc3C(=O)N2c2ccc3ccc(Cl)nc3n2)CC1 (centres unmarked) [drawing 39]		ED50 (rats): > 40 mg/kg; ED50 (mice): ~50 mg/kg; minimal effective dose (male rat (SD/JCL)): < 20 mg/kg
O=C(CC1c2ccccc2C(=O)N1c1ccc2ccc(Cl)nc2n1)N1CCC2(CC1)OCCO2 (centres unmarked) [drawing 36]		ED50 (rats): > 80 mg/kg; ED50 (mice): > 50 mg/kg; minimal effective dose (male rat (SD/JCL)): 5 mg/kg
COc1ccc(N2C(=O)c3ccc(Cl)cc3C2CC(=O)N2CCC(=NO)CC2)cc1 (centres unmarked)	3.47	
COc1ccc(N2C(=O)c3ccc([N+](=O)[O-])cc3C2CC(=O)N2CCC(=NO)CC2)cc1 (centres unmarked)	7.94	
CC(=O)OC1CCN(C(=O)CC2c3ccccc3C(=O)N2c2ccc3ccc(Cl)nc3n2)CC1 (centres unmarked)	0.501	
COc1ccc(N2C(=O)c3ccc(Cl)cc3C2CC(=O)N2CCC3(CC2)OCCO3)cc1 (centres unmarked)	8.71	
O=C(CC1c2ccccc2C(=O)N1c1ccc2ccc(Cl)nc2n1)N1CCC2(CC1)SCCS2 (centres unmarked)	1.23	
CCC(=O)OC1CCN(C(=O)CC2c3ccccc3C(=O)N2c2ccc3ccc(Cl)nc3n2)CC1 (centres unmarked)	1	
O=C(CC1c2ccccc2C(=O)N1c1ccc2ccc(Cl)nc2n1)N1CCC(O)CC1 (centres unmarked) [drawing 34]	0.794	
CC1(C)COC2(CCN(C(=O)CC3c4ccccc4C(=O)N3c3ccc4ccc(Cl)nc4n3)CC2)OC1 (centres unmarked)	2.4	
COc1ccc(N2C(=O)c3ccc([N+](=O)[O-])cc3C2CC(=O)N2CCC3(CC2)OCCO3)cc1 (centres unmarked)	21.9	
COc1ccc(N2C(=O)c3ccc([N+](=O)[O-])cc3C2CC(=O)N2CCC(=O)CC2)cc1 (centres unmarked)	6.16	
COc1ccc(N2C(=O)c3ccc(Cl)cc3C2CC(=O)N2CCC(=O)CC2)cc1 (centres unmarked)	2.4	
O=C(CC1c2ccccc2C(=O)N1c1ccc2ccc(Cl)nc2n1)N1CCC2(CC1)OCCO2 (centres unmarked) [drawing 17]	0.38	
O=C(CC1c2ccccc2C(=O)N1c1ccc2ccc(Cl)nc2n1)N1CCC2(CC1)SCCCS2 (centres unmarked)	0.562	
O=C1CCN(C(=O)CC2c3ccccc3C(=O)N2c2ccc3ccc(Cl)nc3n2)CC1 (centres unmarked) [drawing 16]	0.537	
O=C(CC1c2ccccc2C(=O)N1c1ccc2ccc(Cl)nc2n1)N1CCC(O)CC1 (centres unmarked) [drawing 41]		ED50 (rats): > 80 mg/kg; ED50 (mice): 40.2 mg/kg; minimal effective dose (male rat (SD/JCL)): > 30 mg/kg
O=C(CC1c2ccccc2C(=O)N1c1ccc2ccc(Cl)nc2n1)N1CCC2(CC1)OCCCO2 (centres unmarked)	4.9	
O=C1CCN(C(=O)CC2c3ccccc3C(=O)N2c2ccc3ccc(Cl)nc3n2)CC1 (centres unmarked) [drawing 38]		ED50 (rats): > 80 mg/kg; ED50 (mice): 24.3 mg/kg; minimal effective dose (male rat (SD/JCL)): 20 mg/kg
